The source made the active and inactive calls. No cut-off for these calls is given here.
What was measured:
[1] = target: T1, Prostaglandin G/H synthase 1 (Ovis aries, UniProt P05979); assay: Inhibition of ovine COX1 by enzyme immuno assay
T1 sequence (P05979 whole entry): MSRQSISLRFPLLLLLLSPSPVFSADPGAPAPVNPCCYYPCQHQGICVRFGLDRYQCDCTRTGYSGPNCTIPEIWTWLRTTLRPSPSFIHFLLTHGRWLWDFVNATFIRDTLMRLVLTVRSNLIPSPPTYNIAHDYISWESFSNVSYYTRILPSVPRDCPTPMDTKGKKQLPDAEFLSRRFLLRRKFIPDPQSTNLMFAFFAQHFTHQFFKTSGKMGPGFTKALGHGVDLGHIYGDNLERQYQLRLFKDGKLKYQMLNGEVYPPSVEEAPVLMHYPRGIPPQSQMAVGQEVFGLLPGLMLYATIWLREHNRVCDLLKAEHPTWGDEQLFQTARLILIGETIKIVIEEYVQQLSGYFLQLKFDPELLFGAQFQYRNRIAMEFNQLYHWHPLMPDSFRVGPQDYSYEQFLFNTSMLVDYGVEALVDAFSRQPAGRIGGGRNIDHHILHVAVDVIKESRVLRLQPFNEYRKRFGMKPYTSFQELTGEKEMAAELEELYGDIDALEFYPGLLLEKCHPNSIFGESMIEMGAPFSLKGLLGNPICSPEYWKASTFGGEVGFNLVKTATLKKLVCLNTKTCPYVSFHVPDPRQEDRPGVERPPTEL

Rattus norvegicus [2] = assay: Ulcerogenic activity in po dosed formalin-induced rat foot paw edema model assessed as ulcer index at antiinflammatory ED50; format: toxicity, organism-based; conditions: in vivo
Rattus norvegicus [3] = assay: Antiinflammatory activity in po dosed formalin-induced rat foot paw edema model assessed as paw thickness after 3 hrs; format: functional
Rattus norvegicus [4] = assay: Ulcerogenic activity in formalin-induced rat foot paw edema model assessed as ulcer index at 120 umol/kg, po; format: toxicity, organism-based; conditions: in vivo

| Compound | IC50 [1] | UI (Rattus norvegicus [2]) | ED50 (Rattus norvegicus [3]) | UI (Rattus norvegicus [4]) |
| --- | --- | --- | --- | --- |
| COc1cc(C2CC(c3ccco3)=NN2c2ccc(S(N)(=O)=O)cc2)cc(OC)c1OC (configuration not stated) | 7.36 µM | 2.7 | 179 µmol/kg | – |
| NS(=O)(=O)c1ccc(N2N=C(c3ccco3)CC2c2ccc(C(F)(F)F)cc2)cc1 (configuration not stated) | 2.14 µM | 1.2 | inactive | – |
| CC(C)Cc1ccc(C(C)C(=O)O)cc1 (configuration not stated) [IBUPROFEN] | – | – | 499 µmol/kg | 20.25 |
| NS(=O)(=O)c1ccc(N2N=C(c3ccco3)CC2c2ccc(Cl)cc2)cc1 (configuration not stated) | 4.66 µM | 4.12 | 404 µmol/kg | – |
| NS(=O)(=O)c1ccc(N2N=C(c3ccco3)CC2c2ccco2)cc1 (configuration not stated) | 9.65 µM | 1.2 | 383 µmol/kg | – |
| Cc1ccc(-c2cc(C(F)(F)F)nn2-c2ccc(S(N)(=O)=O)cc2)cc1 [CELECOXIB] | – | 2.9 | 47 µmol/kg | – |

More lines, main results first:

| IC50 [1] | Compound | UI (Rattus norvegicus [2]) | ED50 (Rattus norvegicus [3]) | UI (Rattus norvegicus [4]) |
| --- | --- | --- | --- | --- |
| 11.7 µM | COc1ccc(C2CC(c3cccs3)=NN2c2ccc(S(N)(=O)=O)cc2)cc1 (configuration not stated) | 2.97 | 204 µmol/kg | – |
| 5.74 µM | NS(=O)(=O)c1ccc(N2N=C(c3cccs3)CC2c2ccc(C(F)(F)F)cc2)cc1 (configuration not stated) | 3.8 | 99 µmol/kg | – |
| 6.74 µM | COc1ccc(C2CC(c3ccco3)=NN2c2ccc(S(N)(=O)=O)cc2)cc1 (configuration not stated) | 3.13 | 232 µmol/kg | – |
| 8.71 µM | NS(=O)(=O)c1ccc(N2N=C(c3cccs3)CC2c2ccc(Cl)cc2)cc1 (configuration not stated) | 2.82 | 197 µmol/kg | – |
| 12.3 µM | NS(=O)(=O)c1ccc(N2N=C(c3ccco3)CC2c2cccs2)cc1 (configuration not stated) | 3.03 | 469 µmol/kg | – |
| 16.4 µM | NS(=O)(=O)c1ccc(N2N=C(c3cccs3)CC2c2cccs2)cc1 (configuration not stated) | 2.7 | 144 µmol/kg | – |
| 13.4 µM | COc1cc(C2CC(c3cccs3)=NN2c2ccc(S(N)(=O)=O)cc2)cc(OC)c1OC (configuration not stated) | – | 382 µmol/kg | – |
| 10.2 µM | NS(=O)(=O)c1ccc(N2N=C(c3ccco3)CC2c2ccccc2)cc1 (configuration not stated) | 4.6 | 238 µmol/kg | – |
| 14.6 µM | NS(=O)(=O)c1ccc(N2N=C(c3cccs3)CC2c2ccco2)cc1 (configuration not stated) | 4.15 | 209 µmol/kg | – |

— ChEMBL document CHEMBL3745634, “Synthesis, cyclooxygenase inhibition, anti-inflammatory evaluation and ulcerogenic liability of new 1,3,5-triarylpyrazoline and 1,5-diarylpyrazole derivatives as selective COX-2 inhibitors” (Bioorg Med Chem Lett, 2016)
